Assays:
[1] = biological target: T1, PRMT5/MEP50 (Homo sapiens, UniProt O14744); assay: PRMT5 Biochemical Assay (PRMT5/MEP50 enzyme assay on peptide substrate, 3H-SAM Flashplate); conditions: PRMT5/MEP50 4 nM, 3H-SAM 75 nM, peptide 40 nM, 30 min preincubation at 25 degrees Celsius
T1 construct: Flag-PRMT5; made in house; host or cells: Spodoptera frugiperda (SF9) insect cells, baculovirus (pDEST8)
Description: S-adenosylmethionine (SAM), S-adenosylhomocysteine (SAH), bicine, KCl, Tween20, dimethylsulfoxide (DMSO), bovine skin gelatin (BSG), and Tris(2-carboxyethyl)phosphine hydrochloride solution (TCEP) were purchased from Sigma-Aldrich at the highest level of purity possible. ^3H-SAM was purchase from American Radiolabeled Chemicals with a specific activity of 80 Ci/mmol. 384-well streptavidin Flashplates were purchased from PerkinElmer.
Peptide representative of human histone H4 residues 1-15 was synthesized with a C-terminal linker-affinity tag motif and a C-terminal amide cap by 21st Century Biochemicals. The peptide was high high-performance liquid chromatography (HPLC) purified to greater than 95% purity and confirmed by liquid chromatography mass spectrometry (LC-MS). The sequence was Ac-[…][K-Biot]-amide (SEQ ID NO.:3).
Full-length human PRMT5 (NM_006109.3) transcript variant 1 clone was amplified from a fetal brain cDNA library, incorporating flanking 5′ sequence encoding a FLAG tag ([…]) (SEQ ID NO.:4) fused directly to Ala 2 of PRMT5. Full-length human MEP50 (NM_024102) clone was amplified from a human testis cDNA library incorporating a 5′ sequence encoding a 6-histidine tag (MHHHHHH) (SEQ ID NO.:5) fused directly to Arg 2 of MEP50. The amplified genes were sublconed into pENTR/D/TEV (Life Technologies) and subsequently transferred by Gateway™ attL×attR recombination to pDEST8 baculvirus expression vector (Life Technologies).
Recombinant baculovirus and Baculovirus-Infected Insect Cells (BIIC) were generated according to Bac-to-Bac kit instructions (Life Technologies) and Wasilko, 2006, respectively. Protein over-expression was accomplished by infecting exponentially growing Spodoptera frugiperda (SF9) cell culture at 1.2×10^6 cell/ml with a 5000 fold dilution of BIIC stock. Infections were carried out at 27° C. for 72 hours, harvested by centrifugation, and stored at −80° C. for purification.
Flag-PRMT5/6His-MeP50 was eluted with 300 mM Imidazole in the same buffer. The purity of recovered protein was 87%. Reference: Wasilko, D. J. and S. E. Lee: “TIPS: titerless infected-cells preservation and scale-up” Bioprocess J., 5 (2006), pp. 29-32.
General Procedure for PRMT5/MEP50 Enzyme Assays on Peptide Substrates.
The assays were all performed in a buffer consisting of 20 mM Bicine (pH=7.6), 1 mM TCEP, 0.005% BSG, and 0.002% Tween20, prepared on the day of use. Compounds in 100% DMSO (1 ul) were spotted into a polypropylene 384-well V-bottom plates (Greiner) using a Platemate Plus outfitted with a 384-channel head (Thermo Scientific). DMSO (1 ul) was added to Columns 11, 12, 23, 24, rows A-H for the maximum signal control and 1 ul of SAH, a known product and inhibitor of PRMT5/MEP50, was added to columns 11, 12, 23, 24, rows I-P for the minimum signal control. A cocktail (40 ul) containing the PRMT5/MEP50 enzyme and the peptide was added by Multidrop Combi (Thermo-Fisher). The compounds were allowed to incubate with PRMT5/MEP50 for 30 min at 25 degrees Celsius, then a cocktail (10 ul) containing ^3H-SAM was added to initiate the reaction (final volume=51 ul). The final concentrations of the components were as follows: PRMT5/MEP50 was 4 nM, ^3H-SAM was 75 nM, peptide was 40 nM, SAH in the minimum signal control wells was 100 uM, and the DMSO concentration was 1%. The assays were stopped by the addition of non-radioactive SAM (10 ul) to a final concentration of 600 uM, which dilutes the ^3H-SAM to a level where its incorporation into the peptide substrate is no longer detectable. 50 ul of the reaction in the 384-well polypropylene plate was then transferred to a 384-well Flashplate and the biotinylated peptides were allowed to bind to the streptavidin surface for at least 1 hour before being washed three times with 0.1% Tween20 in a Biotek ELx405 plate washer. […]

[2] = test system: Z-138 cell line; assay: Z-138 Proliferation Assay (Cell Titer Glo); type: cell-based; conditions: Homo sapiens, 120 h; Z-138 cells, 5 days incubation, ATP (Cell Titer Glo)
Description: Z-138 Proliferation Assay
Z-138 suspension cells were purchased from ATCC (American Type Culture Collection, Manassas, Va.). RPMI/Glutamax medium, penicillin-streptomycin, heat inactivated fetal bovine serum were purchased from Life Technologies, Grand Island, N.Y., USA. V-bottom polypropylene 384-well plates were purchased from Greiner Bio-One, Monroe, N.C., USA. Cell culture 384-well white opaque plates were purchased from Perkin Elmer, Waltham, Mass., USA. Cell-Titer Glo® was purchased from Promega Corporation, Madison, Wis., USA. SpectraMax M5 plate reader was purchased from Molecular Devices LLC, Sunnyvale, Calif., USA.
Z-138 suspension cells were maintained in growth medium (RPMI 1640 supplemented with 10% v/v heat inactivated fetal bovine serum and cultured at 37° C. under 5% CO2. Under assay conditions, cells were incubated in assay medium (RPMI 1640 supplemented with 10% v/v heat inactivated fetal bovine serum and 100 units/mL penicillin-streptomycin) at 37° C. under 5% CO2.
For the assessment of the effect of compounds on the proliferation of the Z-138 cell line, exponentially growing cells were plated in 384-well white opaque plates at a density of 10,000 cells/ml in a final volume of 50 μl of assay medium. A compound source plate was prepared by performing triplicate nine-point 3-fold serial dilutions in DMSO, beginning at 10 mM (final top concentration of compound in the assay was 20 μM and the DMSO was 0.2%). A 100 nL aliquot from the compound stock plate was added to its respective well in the cell plate. […] After addition of compounds, assay plates were incubated for 5 days at 37° C., 5% CO2, relative humidity >90%.
Cell viability was measured by quantitation of ATP present in the cell cultures, adding 35 μl of Cell Titer Glo® reagent to the cell plates. Luminescence was read in the SpectraMax M5 microplate reader. The concentration of compound inhibiting cell viability by 50% was determined using a 4-parametric fit of the normalized dose response curves.

[3] = test system: Symmetric di-Methyl Arginine in Z-138 cells; assay: Z-138 Methylation Assay (In Cell Western for symmetric di-methyl arginine); type: cell-based; conditions: Homo sapiens, 96 hours incubation, symmetric di-methyl arginine normalised to DNA content, read-out: ICW EC50
Description: Z-138 suspension cells were purchased from ATCC (American Type Culture Collection, Manassas, Va.). RPMI/Glutamax medium, penicillin-streptomycin, heat inactivated fetal bovine serum, and D-PBS were purchased from Life Technologies, Grand Island, N.Y., USA. Odyssey blocking buffer, 800CW goat anti-rabbit IgG (H+L) antibody, and Licor Odyssey infrared scanner were purchased from Licor Biosciences, Lincoln, Nebr., USA. Symmetric di-methyl arginine antibody was purchased from EMD Millipore, Billerica, Mass., USA. 16% Paraformaldehyde was purchased from Electron Microscopy Sciences, Hatfield, Pa., USA.
Z-138 suspension cells were maintained in growth medium (RPMI 1640 supplemented with 10% v/v heat inactivated fetal bovine serum and 100 units/mL penicillin-streptomycin) and cultured at 37° C. under 5% CO2.
Cell Treatment, In Cell Western (ICW) for detection of Symmetric di-Methyl Arginine and DNA content.
Z-138 cells were seeded in assay medium at a concentration of 50,000 cells per mL to a 384-well cell culture plate with 50 μL per well. Compound (100 nL) from 384 well source plates was added directly to 384 well cell plate. Plates were incubated at 37° C., 5% CO2 for 96 hours. After four days of incubation, 40 μL of cells from incubated plates were added to poly-D-lysine coated 384 well culture plates (BD Biosciences 356697). Plates were incubated at room temperature for 30 minutes then incubated at 37° C., 5% CO2 for 5 hours. After the incubation, 40 μL per well of 8% paraformaldehyde in PBS (16% paraformaldahyde was diluted to 8% in PBS) was added to each plate and incubated for 30 minutes. Plates were transferred to a Biotek 405 plate washer and washed 5 times with 100 μL per well of wash buffer (IX PBS with 0.1% Triton X-100 (v/v)). Next […] well of Odyssey blocking buffer were added to each plate and incubated 1 hour at room temperature. Blocking buffer was removed and 20 μL per well of primary antibody was added (symmetric di-methyl arginine diluted 1:100 in Odyssey buffer with 0.1% Tween 20 (v/v)) and plates were incubated overnight (16 hours) at 4° C. Plates were washed 5 times with 100 μL per well of wash buffer. Next 20 μL per well of secondary antibody was added (1:200 800CW goat anti-rabbit IgG (H+L) antibody, 1:1000 DRAQ5 (Biostatus limited) in Odyssey buffer with 0.1% Tween 20 (v/v)) and incubated for 1 hour at room temperature. The plates were washed 5 times with 100 μL per well wash buffer then 1 time with 100 μL per well of water. Plates were allowed to dry at room temperature then imaged on the Licor Odyssey machine which measures integrated intensity at 700 nm and 800 nm wavelengths. Both 700 and 800 channels were scanned.
First, the ratio for each well was determined by:
Each plate included fourteen control wells of DMSO only treatment (minimum inhibition) as well as fourteen control wells for maximum inhibition treated with 3 μM of a reference compound (Background wells). The average of the ratio values for each control type was calculated and used to determine the percent inhibition for each test well in the plate. Reference compound was serially diluted three-fold in DMSO for a total of nine test concentrations, beginning at 3 μM. Percent inhibition was determined and IC50 curves were generated using triplicate wells per concentration of compound.

T1 sequence (O14744 with tags, fused parts or gaps): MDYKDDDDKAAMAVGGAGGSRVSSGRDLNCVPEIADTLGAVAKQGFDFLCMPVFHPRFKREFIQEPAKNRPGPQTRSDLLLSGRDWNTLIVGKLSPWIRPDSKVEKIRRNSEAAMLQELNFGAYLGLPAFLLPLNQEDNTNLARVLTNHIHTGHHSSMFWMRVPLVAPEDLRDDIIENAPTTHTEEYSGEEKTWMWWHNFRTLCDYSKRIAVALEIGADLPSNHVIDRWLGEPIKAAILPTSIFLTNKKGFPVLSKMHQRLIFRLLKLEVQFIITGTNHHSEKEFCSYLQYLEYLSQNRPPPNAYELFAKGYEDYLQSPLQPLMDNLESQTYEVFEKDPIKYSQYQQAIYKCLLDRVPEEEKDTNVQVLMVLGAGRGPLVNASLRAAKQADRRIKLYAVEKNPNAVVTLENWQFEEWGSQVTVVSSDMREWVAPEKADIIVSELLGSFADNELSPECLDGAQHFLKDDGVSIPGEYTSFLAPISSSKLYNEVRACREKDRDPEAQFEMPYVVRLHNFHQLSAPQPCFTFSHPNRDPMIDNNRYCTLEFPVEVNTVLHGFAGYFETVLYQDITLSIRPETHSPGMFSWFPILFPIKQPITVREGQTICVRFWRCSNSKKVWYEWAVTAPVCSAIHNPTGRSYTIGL
T1 sequence (Q9BQA1 with tags, fused parts or gaps partner limits assumed): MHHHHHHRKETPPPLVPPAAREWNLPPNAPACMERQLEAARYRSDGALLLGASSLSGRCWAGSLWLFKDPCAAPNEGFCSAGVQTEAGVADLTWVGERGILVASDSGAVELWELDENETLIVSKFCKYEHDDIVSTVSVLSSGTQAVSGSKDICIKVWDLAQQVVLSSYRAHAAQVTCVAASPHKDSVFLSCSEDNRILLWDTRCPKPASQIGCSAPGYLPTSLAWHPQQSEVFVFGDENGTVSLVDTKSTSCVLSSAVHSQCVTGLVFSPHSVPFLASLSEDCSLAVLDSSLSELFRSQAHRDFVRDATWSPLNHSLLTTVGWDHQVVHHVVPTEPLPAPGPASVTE

IC50 [1] [µM] | Compound | EC50 [2] [µM] | EC50 [3] [µM]
10 to 50 | OC(COc1cccc(CNC2CCCC2)c1)CN1CCc2[nH]nc(-c3ccccc3)c2C1 (stereo not drawn) [Compound 3-9, 1-(3-((cyclopentylamino)methyl)phenoxy)-3-(3-phenyl-6,7-dihydro-1H-pyrazolo[4,3-c]pyridin-5(4H)-yl)propan-2-ol] | 10 to 50 | 
> 10 | O=C(NC[C@H](O)CN1CCc2cn[nH]c2C1)c1cc(NC2COC2)ncn1 [Compound 3-39] | > 5 | 
> 10 | O=C(NC[C@H](O)CN1CCc2[nH]ncc2C1)c1cc(NC2COC2)ncn1 [Compound 3-19] |  | > 1
> 50 | OC(COc1cccc(CNC2CCCC2)c1)CN1CCc2[nH]ncc2C1 (stereo not drawn) [Compound 3-14] | > 40 | 
1 to 10 | CC(=O)N1CC(Nc2cc(C(=O)NC[C@H](O)CN3CCc4nc(C)sc4C3)ncn2)C1 [Compound 1-6, (S)-6-((1-acetylazetidin-3-yl)amino)-N-(2-hydroxy-3-(2-methyl-6,7-dihydrothiazolo[5,4-c]pyridin-5(4H)-yl)propyl)pyrimidine-4-carboxamide] | > 5 | 
1 to 10 | O=C(NC[C@H](O)CN1CCc2cccnc2C1)c1cc(NC2COC2)ncn1 [Compound 2-10] | 1 to 10 | 
